Measured values taken from PubChem BioAssay AID1963973 (Molecular Pharmacology Branch, DTP, NCI, 2024).

Test system: 883617-216-R-J1-PDC tumor spheroids, viability
Assay: Anticancer human tumor 883617-216-R-J1-PDC patient-derived bladder carcinoma cell line growth inhibition [PI3K]
Details: spheroids with HUVEC and MSC; for IC50: curve of first compound; for viability, T/C: stronger effect = lower value
Outline: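 Complex 3D spheroids (cancer cells + endothelial HUVEC + mesenchymal stem cells); drug pairs of targeted agent x inavolisib/alpelisib/duvelisib/copanlisib; half-log series from ~Cmax, max 10 microM if Cmax unknown; endpoint viability.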

[1] = second compound 0.00316 µM, first compound 0.0316 µM
[2] = second compound 0.00316 µM, first compound 0.1 µM
[3] = second compound 0.00316 µM, first compound 0.316 µM
[4] = second compound 0.00316 µM, first compound 1 µM
[5] = second compound 0.00316 µM, first compound 3.16 µM
[6] = second compound 0.00316 µM, first compound 10 µM
[7] = second compound 0.01 µM, first compound 0.0316 µM
[8] = second compound 0.01 µM, first compound 0.1 µM
[9] = second compound 0.01 µM, first compound 0.316 µM
[10] = second compound 0.01 µM, first compound 1 µM
[11] = second compound 0.01 µM, first compound 3.16 µM
[12] = second compound 0.01 µM, first compound 10 µM
[13] = second compound 0.0316 µM, first compound 0.0316 µM
[14] = second compound 0.0316 µM, first compound 0.1 µM
[15] = second compound 0.0316 µM, first compound 0.316 µM
[16] = second compound 0.0316 µM, first compound 1 µM
[17] = second compound 0.0316 µM, first compound 3.16 µM
[18] = second compound 0.0316 µM, first compound 10 µM
[19] = second compound 0.1 µM, first compound 0.0316 µM
[20] = second compound 0.1 µM, first compound 0.1 µM
[21] = second compound 0.1 µM, first compound 0.316 µM
[22] = second compound 0.1 µM, first compound 1 µM
[23] = second compound 0.1 µM, first compound 3.16 µM
[24] = second compound 0.1 µM, first compound 10 µM
[25] = second compound 0.316 µM, first compound 0.0316 µM
[26] = second compound 0.316 µM, first compound 0.1 µM
[27] = second compound 0.316 µM, first compound 0.316 µM
[28] = second compound 0.316 µM, first compound 1 µM
[29] = second compound 0.316 µM, first compound 3.16 µM
[30] = second compound 0.316 µM, first compound 10 µM
[31] = second compound 1 µM, first compound 0.0316 µM
[32] = second compound 1 µM, first compound 0.1 µM
[33] = second compound 1 µM, first compound 0.316 µM
[34] = second compound 1 µM, first compound 1 µM
[35] = second compound 1 µM, first compound 3.16 µM
[36] = second compound 1 µM, first compound 10 µM
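Note: spheroids exposed to agents for 7 days before the viability read.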

Work on C#Cc1c(F)ccc2cc(O)cc(-c3ncc4c(N5CC6CCC(C5)N6)nc(OCC56CCCN5CC(F)C6)nc4c3F)c12 (centres undefined) + COc1c(OCCCN2CCOCC2)ccc2c3n(c(=NC(=O)c4cnc(N)nc4)nc12)CCN3 yielded an IC50 (second compound 0.00316 µM) greater than 10000 nM, an IC50 (second compound 0.01 µM) of 4880 nM and an IC50 (second compound 0.0316 µM) of less than 31.6 nM. For the same compound, the IC50 (second compound 0.1 µM) was less than 31.6 nM, the IC50 (second compound 0.316 µM) was less than 31.6 nM and the IC50 (second compound 1 µM) was less than 31.6 nM. For the same compound, the viability, T/C [1] was 84.7%, the viability, T/C [2] was 99.8% and the viability, T/C [3] was 88.7%. For the same compound, the viability, T/C [4] was 91.3%, the viability, T/C [5] was 80% and the viability, T/C [6] was 52.1%. The viability, T/C [7] was 64.1%, the viability, T/C [8] was 64.8% and the viability, T/C [9] was 78.9%. The viability, T/C [10] was 67.4%, the viability, T/C [11] was 55.5% and the viability, T/C [12] was 41%. It also gave a viability, T/C [13] of 37%, a viability, T/C [14] of 45.5% and a viability, T/C [15] of 34.4%. It also gave a viability, T/C [16] of 34%, a viability, T/C [17] of 33.6% and a viability, T/C [18] of 22.8%. The viability, T/C [19] was 16.4%, the viability, T/C [20] was 17.1% and the viability, T/C [21] was 14.6%. For the same compound, the viability, T/C [22] was 15.6%, the viability, T/C [23] was 12.2% and the viability, T/C [24] was 11.4%. The viability, T/C [25] was 5.31%, the viability, T/C [26] was 5% and the viability, T/C [27] was 4.47%. It also gave a viability, T/C [28] of 4.9%, a viability, T/C [29] of 3.89% and a viability, T/C [30] of 2.71%. For the same compound, the viability, T/C [31] was 3.49%, the viability, T/C [32] was 3.22% and the viability, T/C [33] was 2.69%. It also gave a viability, T/C [34] of 2.82%, a viability, T/C [35] of 2.98% and a viability, T/C [36] of 0.66%.

CC1(C)CCC(Nc2ncc(C(F)(F)F)c(-c3c[nH]c4c(P(C)(C)=O)c(C#N)ccc34)n2)CN1 (centres undefined) + COc1c(OCCCN2CCOCC2)ccc2c3n(c(=NC(=O)c4cnc(N)nc4)nc12)CCN3 was tested, and the IC50 (second compound 0.00316 µM) was less than 31.6 nM, the IC50 (second compound 0.01 µM) was less than 31.6 nM and the IC50 (second compound 0.0316 µM) was less than 31.6 nM. It also gave an IC50 (second compound 0.1 µM) of less than 31.6 nM, an IC50 (second compound 0.316 µM) of less than 31.6 nM and an IC50 (second compound 1 µM) of less than 31.6 nM. It also gave a viability, T/C [1] of 30.3%, a viability, T/C [2] of 35% and a viability, T/C [3] of 33%. It also gave a viability, T/C [4] of 32.9%, a viability, T/C [5] of 13.7% and a viability, T/C [6] of 0.49%. For the same compound, the viability, T/C [7] was 31.4%, the viability, T/C [8] was 29.6% and the viability, T/C [9] was 24.3%. It also gave a viability, T/C [10] of 23.4%, a viability, T/C [11] of 15.2% and a viability, T/C [12] of 1.02%. It also gave a viability, T/C [13] of 20.4%, a viability, T/C [14] of 22.8% and a viability, T/C [15] of 24.7%. For the same compound, the viability, T/C [16] was 21.6%, the viability, T/C [17] was 9.22% and the viability, T/C [18] was 0.59%. For the same compound, the viability, T/C [19] was 15.2%, the viability, T/C [20] was 12.5% and the viability, T/C [21] was 12.8%. It also gave a viability, T/C [22] of 10.9%, a viability, T/C [23] of 6.57% and a viability, T/C [24] of 1.66%. It also gave a viability, T/C [25] of 5.18%, a viability, T/C [26] of 4.62% and a viability, T/C [27] of 4.01%. It also gave a viability, T/C [28] of 4.88%, a viability, T/C [29] of 1.53% and a viability, T/C [30] of 0.09%. It also gave a viability, T/C [31] of 2.28%, a viability, T/C [32] of 1.83% and a viability, T/C [33] of 1.8%. For the same compound, the viability, T/C [34] was 1.55%, the viability, T/C [35] was 0.47% and the viability, T/C [36] was 0.27%.
